System: S. elongatus
Assay: tolerance of S. elongatus to isobutyraldehyde and isobutanol (growth by OD730)
Assay type: cell-based, Synechococcus elongatus PCC7942
Method: FIGS. 1P-1Q show S. elongatus tolerance to isobutyraldehyde and isobutanol. Effect of isobutyraldehyde (P) or isobutanol (Q) addition on growing cultures of S. elongatus as determined by optical density (OD730). At OD730 ˜1.0, isobutyraldehyde or isobutanol was added to the cultures at final concentration (mg/L) of: 0 (squares), 500 (circles), 750 (triangles), 1000 (diamonds) and 2500 (stars).
The tolerance of S. elongatus to isobutyraldehyde and isobutanol was also measured (FIG. 1P). […] In addition, the isobutyraldehyde tolerance level of S. elongatus is much higher than the concentration found in the culture medium during production. […] Thus, the in situ product removal system effectively avoids toxicity effects.
Wild-type S. elongatus and mutant strains were grown in a modified BG-11 medium with the following modifications: 50 mM NaHCO3 and 10 mg/l thiamine were added. For an experiment with 5% CO2 bubbling, 50 mM NaHCO3 was not added. Cyanobacterial cells were grown at 30° C. under fluorescent light (55 μE s^−1 m^−2), which was provided by eight 86-cm 20-W fluorescent tubes placed 15 cm from the cell culture. Cell growth was monitored by measuring OD730 of each culture.

CC(C)C=O [isobutyraldehyde] was tested, and the “relative toxicity to the cell” value (S. elongatus, isobutyraldehyde compared with isobutanol) was “less toxic to the cell than isobutanol” and the tolerated concentration (wild-type S. elongatus, compound added to growing cultures at OD730 ~1.0, growth by OD730) was “up to 750 mg/l”.

In the case of CC(C)CO [isobutanol], the effect on growth (wild-type S. elongatus, the same concentration (750 mg/l) added to growing cultures, growth by OD730) is reported as “growth retardation”.

Source: US9145542B2, “Method for producing aldehyde from CO2” (The Regents of the University of California, priority 2008, dated 2015)
